Data on 2 compounds can be found in ChEMBL document CHEMBL4138287, “Total Synthesis of the Flavonoid Natural Product Houttuynoid A” (J Nat Prod, 2018).

The experiment relates to Herpesviridae sp. Kind of experiment: Antiviral activity against Herpes simplex virus infected in African green monkey Vero cells measured at 24 hrs post infection at 2 mins interval for 25 times. Type of experiment: functional, organism-based.

`CCCCCCCCCc1cc2c(-c3oc4cc(O)cc(O)c4c(=O)c3O[C@@H]3O[C@H](CO)[C@H](O)[C@H](O)[C@H]3O)ccc(O)c2o1` returned an IC50 of 57.7 µM.
`CCCCCCCCCc1oc2c(O)ccc(-c3oc4cc(O)cc(O)c4c(=O)c3O[C@@H]3O[C@H](CO)[C@H](O)[C@H](O)[C@H]3O)c2c1C=O` yielded an IC50 of 23.5 µM.

As a reminder, the IC50 is the point on the concentration scale where inhibition reaches its midpoint.
